This is an account of results in paper PMC6468747 (Cancers, 2019).

The test system of test [1] is MDA-MB-231 cells. The experiment in a line: MTT cell viability with/without siMnk1 knockdown. Type of test: cell-based, human. To be noted: 5 μM. How it is done:
Small interfering RNA targeting the Mnk1 (siMnk1) gene and corresponding scramble siRNA sequence (siControl) were purchased from Ambion ((Waltham, MA, USA). Briefly, 3 × 10^5 MDA-MB-231 cells were seeded into 6 cm cell culture dish (Corning®) and incubated for 24 h in for normal culture medium. Subsequently, cells were subjected to transfection with 100 nM of siMnk1 or siControl using the RNAi Human/Mouse Starter Kit (Qiagen, (Qiagen, Hilden, Germany) following the manufacturer’s instructions for 48 h. For cell growth assay experiments, transfection complex was removed after 48 h, cells were washed twice with phosphate-buffered saline and replaced with normal growth medium. Twenty-four hour later, 5 μM of VNLG-152R was added to the growth media and harvested after 24 h. Non-transfected cells were also treated with 5 μM of VNLG-152R for 24 h. Protein silencing was confirmed by immunoblot analysis.

In test [2] the test system is HCC-1806 (BL2). Put plainly: MTT cell growth assay, 7 days. The test is classed as cell-based. The following applies: Homo sapiens, HCC1806, 168 h. How it is done: (§1) Figure 3 In vitro characterization, pharmacokinetics and toxicity profile of VNLG-152R and its two enantiomers. (A) HPLC chromatograms racemic VNLG-152R (left panel) and the resolved enantiomers VNLG-152E1 and VNLG-152E2 (right panel). The conditions of HPLC procedure are presented in Supplementary Materials. (B) Table summarizing GI50 values (µM) each cell line treated with VNLG-152R and its enantiomers. TNBC cell subtypes were treated with listed compound (0.1 nmol/L–100 µmol/L) for 7 days and the GI50 values for the anti-proliferative effects of the compounds were determined from dose response curves (by a nonlinear regression analysis using Graph Pad Prism). Data represents the results from six independent experiments for each cell line. (C) Plasma concentration versus time profile after intravenous (IV, 2 mg/kg each, top panel) or oral (PO, 20 mg/kg each, bottom panel) of VNLG-152R (red), VNLG-152E1 (purple) and VNLG-152E2 (blue) to female CD1 mice. Values represent the mean plasma concentrations from three mice per time point. (D) Table of the pharmacokinetic parameters of various compounds after IV and PO dosing. AUC = area under the curve, T1/2 = elimination half-life, Cmax = maximum plasma concentration, F (%) = oral bioavailability. (E) Effects of VNLG-152R, VNLG-152E1 and VNLG-152E2 on body weight and clinical observations at chronic dose termination of study. Three different doses, i.e., 10, 25, and 50 mg/kg/day (formulated in 40% β-cyclodextrin in saline) of each compound were administered daily by oral gavage for 14 days. Each group consisted of three mice. Loss in body weight, a clinical sign of toxicity was observed during the 14 days of dosing and the maximum tolerated dose (MTD) was estimated following established procedures. Changes in body weight were scored on a scale of 0–4 as follows as described under methods. […]
(In general: Tetrazolium assays rely on reduction of a dye to a coloured formazan, in cell work by metabolically active cells.)

The test system of test [3] is MDA-MB-231 (MSL). The experiment in a line: MTT cell growth assay, 7 days. The test is classed as cell-based. The following applies: Homo sapiens, MDA-MB-231, 168 h. On the procedure:
as §1

For test [4], the system named is MDA-MB-436 (MSL). The experiment in a line: MTT cell growth assay, 7 days. To be noted: Homo sapiens, MDA-MB-436, 168 h. The test is classed as cell-based. How it is done: as §1
The test system of test [5] is MDA-MB-453 (LAR). The experiment in a line: MTT cell growth assay, 7 days. The test is classed as cell-based. To be noted: Homo sapiens, MDA-MB-453, 168 h. How it is done:
as §1

Test [6] concerns MDA-MB-468 (BL1). The experiment in a line: MTT cell growth assay, 7 days. The test is classed as cell-based. To be noted: Homo sapiens, MDA-MB-468, 168 h. How it is done: as §1
The subject of test [7] is MFM-223 (LAR). The experiment in a line: MTT cell growth assay, 7 days. Type of test: cell-based. The following applies: Homo sapiens, MFM-223, 168 h. How it is done: as §1
For test [8], the system named is MDA-MB-231 cells. The experiment in a line: Real time cell invasion assay (xCELLigence). The test is classed as cell-based, human. The following applies: 2.5, 5 and 10 μM, 24 h pre-treatment. How it is done: Real-time measurement of cell invasion was performed using the xCELLigence RTCA DP device (ACEA Biosciences, San Diego, CA, USA). MDA-MB-231 cells were treated with VNLG-152 (2.5, 5, and 10 μM) for 24 h, cells being treated with VNLG-152 when they were plated. Subsequently, cells were seeded (75,000/well) onto 16-well microelectronic censored, two chamber Matrigel-coated trans-well plates (CIM-plates) containing the respective drug in serum-free condition. Medium containing 10% serum (chemo-attractant) was added to the bottom wells. Invasion of cells was measured from the interaction of cells with the electrodes on the bottom surface of top chamber and represented as a change in cell index (CI), an arbitrary unit derived from the relative change in electrical impedance across microelectronic sensor arrays. The electrical impedance was captured every 3 min for an experimental duration of 24 h. The rate of invasion is expressed as the CI or the change in electrical impedance at each timepoint. Values are expressed as the ±SEM of the duplicate wells from three independent experiments.

The GI50 is the concentration giving 50% growth inhibition. The low end stands for more potent growth inhibition, the high end for less potent growth inhibition. As for `CC1=C(/C=C/C(C)=C/C=C/C(C)=C/C(=O)Nc2ccc(F)cc2)C(C)(C)CCC1n1ccnc1` (racemic) [VNLG-152R, 4-(±)-(1H-imidazol-1-yl)-N-(4-fluorophenyl)-(E)-retinamide], the “reduction in cell viability” value in test [1] (non-transfected MDA-MB-231 cells) is reported as ~ 75%. In addition, in test [1] (siMnk1-transfected MDA-MB-231 cells), the “cell viability in cells harboring Mnk1 knockdown” value is on record as “did not show any significant decrease in cell viability”. Also, the GI50 is 0.81 ± 0.04 µM in test [2]; 0.62 ± 0.03 µM in test [3]; 0.89 ± 0.03 µM in test [4]; 0.74 ± 0.03 µM in test [5]; 0.89 ± 0.06 µM in test [6]; 1.86 ± 0.12 µM in test [7]. Further, in test [8], the “invasive ability (cell index)” value is on record as “significantly lower”.
